Test results as given in publication PMC13070491, “Single-nucleus transcriptomics, pharmacokinetics, and pharmacodynamics of CDK4/6 and mTOR inhibition in a Phase 0/1 trial of recurrent high-grade glioma” (Neuro-Oncology, 2025).
“And” between values parts separate entries of the source, which are not always exact repeats. Equal values may be shown once.

Tests used:
[1] = Plasma pharmacokinetic parameters (LC-MS/MS); settings: for AUC(0-t): AUClast; for AUC(0-t) / Cmax / Tmax / AUClast / CL/F / T1/2: total everolimus plasma; for half-life: T1/2, total everolimus plasma
Experimental: Pharmacokinetic evaluation was conducted as previously described[8] using a validated liquid chromatography with tandem mass spectrometry (LC-MS/MS) method.[16] […] CSF samples were intraoperatively collected.

[2] = Adverse events related to study treatment (CTCAE); type: in vivo, human; settings: Dose Level 0: ribociclib 400mg + everolimus 2.5mg QD 5 days; CTCAE grade 1
Experimental: Eligibility was determined based on previous clinical records, panel DNA sequencing, and IHC of archival tissue from a previous surgery (Figure 1, Supplementary Figure S2A).

[3] = human, plasma, oral, 2.5 mg, mean
[4] = human, plasma, oral, 2.5 mg, median
[5] = human, plasma, oral, 5 mg, mean
[6] = human, plasma, oral, 5 mg, median
[7] = human, plasma, oral, 10 mg, mean
[8] = human, plasma, oral, 10 mg, median
[9] = human, plasma, oral, 50 mg, mean
[10] = human, plasma, oral, 50 mg, median
[11] = human, plasma, oral, 60 mg, mean
[12] = human, plasma, oral, 60 mg, median
[13] = human, plasma, oral, 70 mg, individual patients
[14] = human, plasma, oral, 70 mg, mean
[15] = human, plasma, oral, 70 mg, median
[16] = dose 2.5 mg, individual patients
[17] = dose 10 mg, individual patients
[18] = dose 50 mg, individual patients, listed as everolimus
[19] = dose 60 mg, individual patients
[20] = dose 70 mg, individual patients

CO[C@H]1C[C@@H]2CC[C@@H](C)[C@@](O)(O2)C(=O)C(=O)N2CCCC[C@H]2C(=O)O[C@H]([C@H](C)C[C@@H]2CC[C@@H](OCCO)[C@H](OC)C2)CC(=O)[C@H](C)/C=C(\C)[C@@H](O)[C@@H](OC)C(=O)[C@H](C)C[C@H](C)/C=C/C=C/C=C/1C [Everolimus, everolimus]
AUC(0-t) [1, 3]: 0.31 µM·h
AUC(0-t) [1, 4]: 0.23 µM·h
Cmax ([1]; human, plasma, oral, 2.5 mg, Cmax, mean): 33.7 nM
half-life [1, 3]: 21.6 h
half-life [1, 4]: 17.2 h
Tmax ([1]; human, plasma, oral, 2.5 mg, Tmax, mean): 1.86 h
AUC(0-t) ([1]; human, plasma, oral, 5 mg, individual patients): 0.55 µM·h
AUC(0-t) [1, 5]: 0.43 µM·h
AUC(0-t) [1, 6]: 0.5 µM·h
Cmax ([1]; human, plasma, oral, 5 mg, Cmax, mean): 34.1 nM
half-life [1, 5]: 19.9 h
half-life [1, 6]: 18.8 h
Tmax ([1]; human, plasma, oral, 5 mg, Tmax, mean): 2.69 h
Tmax ([1]; human, plasma, oral, 5 mg, Tmax, median): 2.03 h
AUC(0-t) [1, 7]: 0.9 µM·h
AUC(0-t) [1, 8]: 0.82 µM·h
Cmax ([1]; human, plasma, oral, 10 mg, Cmax, individual patients): 80 nM
half-life ([1]; human, plasma, oral, 10 mg, individual patients): 22.1 h
half-life [1, 7]: 21.8 h
half-life [1, 8]: 21.8 h
Tmax ([1]; human, plasma, oral, 10 mg, Tmax, mean): 3.23 h
Tmax ([1]; human, plasma, oral, 10 mg, Tmax, median): 3.92 h
AUC(0-t) ([1]; human, plasma, oral, 50 mg, individual patients): 1.35 µM·h
AUC(0-t) [1, 9]: 1.59 µM·h
AUC(0-t) [1, 10]: 1.61 µM·h
Cmax ([1]; human, plasma, oral, 50 mg, Cmax, individual patients): 110 nM
Cmax ([1]; human, plasma, oral, 50 mg, Cmax, mean): 140 nM
Cmax ([1]; human, plasma, oral, 50 mg, Cmax, median): 130 nM
half-life [1, 9]: 29.3 h
half-life [1, 10]: 21.3 h
Tmax ([1]; human, plasma, oral, 50 mg, Tmax, mean): 1.31 h
Tmax ([1]; human, plasma, oral, 50 mg, Tmax, median): 1.12 h
AUC(0-t) ([1]; human, plasma, oral, 60 mg, individual patients): 1.93 µM·h
AUC(0-t) [1, 11]: 1.88 µM·h
AUC(0-t) [1, 12]: 1.88 µM·h
Cmax ([1]; human, plasma, oral, 60 mg, Cmax, individual patients): 190 nM
Cmax ([1]; human, plasma, oral, 60 mg, Cmax, mean): 190 nM
Cmax ([1]; human, plasma, oral, 60 mg, Cmax, median): 190 nM
half-life [1, 11]: 19.7 h
half-life [1, 12]: 19.7 h
AUC(0-t) [1, 13]: 1.24 µM·h
AUC(0-t) [1, 14]: 1.29 µM·h
AUC(0-t) [1, 15]: 1.27 µM·h
Cmax ([1]; human, plasma, oral, 70 mg, Cmax, individual patients): 120 nM
Cmax ([1]; human, plasma, oral, 70 mg, Cmax, mean): 120 nM
Cmax ([1]; human, plasma, oral, 70 mg, Cmax, median): 120 nM
half-life [1, 13]: 18.7 h
half-life [1, 14]: 19.4 h
half-life [1, 15]: 19.4 h
Tmax ([1]; human, plasma, oral, 70 mg, Tmax, mean): 4.25 h
Tmax ([1]; human, plasma, oral, 70 mg, Tmax, median): 1.93 h
AUClast [1, 16]: 0.41 µM·h and 0.68 µM·h and 0.46 µM·h and 0.32 µM·h and 0.19 µM·h and 0.16 µM·h and 0.14 µM·h
CL/F [1, 16]: 6.33 L/h and 3.85 L/h and 5.73 L/h and 8.25 L/h and 11.50 L/h and 13.68 L/h and 16.29 L/h and 18.14 L/h and 15.94 L/h
Tmax [1, 16]: 0.93 h and 1.00 h and 1.88 h and 2.05 h and 1.05 h and 3.97 h and 1.92 h and 1.95 h and 2.02 h
CL/F ([1]; dose 2.5 mg, mean): 11.08 L/h
CL/F ([1]; dose 2.5 mg, median): 11.50 L/h
Cmax ([1]; dose 2.5 mg, median): 30 nM
Tmax ([1]; dose 2.5 mg, median): 1.92 h
AUClast ([1]; dose 5 mg, individual patients): 0.22 µM·h
CL/F ([1]; dose 5 mg, individual patients): 9.45 L/h and 23.36 L/h and 10.39 L/h
Cmax ([1]; dose 5 mg, individual patients): 45.2 nM and 21.1 nM
T1/2 ([1]; dose 5 mg, individual patients): 28.35 h and 18.84 h and 12.56 h
Tmax ([1]; dose 5 mg, individual patients): 1.95 h and 4.10 h
CL/F ([1]; dose 5 mg, mean): 14.40 L/h
CL/F ([1]; dose 5 mg, median): 10.39 L/h
Cmax ([1]; dose 5 mg, median): 36.2 nM
AUClast [1, 17]: 0.49 µM·h and 0.63 µM·h and 1.02 µM·h and 1.48 µM·h
CL/F [1, 17]: 21.35 L/h and 16.51 L/h and 10.28 L/h and 7.07 L/h
Cmax [1, 17]: 120 nM
T1/2 [1, 17]: 21.52 h
Tmax [1, 17]: 4.03 h and 1.05 h and 3.83 h and 4.00 h
CL/F ([1]; dose 10 mg, mean): 13.80 L/h
Cmax ([1]; dose 10 mg, mean): 90 nM
CL/F ([1]; dose 10 mg, median): 13.40 L/h
Cmax ([1]; dose 10 mg, median): 84.6 nM
Cmax ([1]; dose 50 mg, individual patients): 130 nM
AUClast [1, 18]: 1.87 µM·h and 1.42 µM·h and 1.72 µM·h
CL/F [1, 18]: 21.38 L/h and 14.80 L/h and 15.39 L/h and 21.73 L/h and 8.55 L/h
Cmax [1, 18]: 130 nM and 160 nM and 170 nM
Tmax [1, 18]: 1.87 h and 1.78 h and 0.83 h and 0.95 h
CL/F ([1]; dose 50 mg, mean): 16.37 L/h
CL/F ([1]; dose 50 mg, median): 15.39 L/h
AUClast [1, 19]: 1.83 µM·h
CL/F [1, 19]: 23.69 L/h and 16.85 L/h
T1/2 [1, 19]: 12.25 h and 27.10 h
Tmax [1, 19]: 1.00 h
CL/F ([1]; dose 60 mg, mean): 20.27 L/h
Tmax ([1]; dose 60 mg, mean): 1.00 h
CL/F ([1]; dose 60 mg, median): 20.27 L/h
Tmax ([1]; dose 60 mg, median): 1.00 h
AUClast [1, 20]: 1.36 µM·h
CL/F [1, 20]: 35.41 L/h and 33.84 L/h
Cmax [1, 20]: 90 nM
T1/2 [1, 20]: 20.18 h
Tmax [1, 20]: 9.75 h and 1.07 h
CL/F ([1]; dose 70 mg, mean): 34.62 L/h
CL/F ([1]; dose 70 mg, median): 34.62 L/h
Stomatitis, No. Patients Affected [2]: 1
